Columns and labels:
[1] = system: clinically isolated HIV strain O; format: cell-based; settings: FR=EC50(mutant strain)/EC50(HIV-1 strain LAI)
Protocol: (§1) HIV- or mock-infected MT4 cells were incubated for five days in the presence of various concentrations of the inhibitor. […] Cell viability is measured by measuring the concentration of MTT, a yellow, water soluble tetrazolium dye that is converted to a purple, water insoluble formazan in the mitochondria of living cells only. Upon solubilization of the resulting formazan crystals with isopropanol, the absorbance of the solution is monitored at 540 nm. The values correlate directly to the number of living cells remaining in the culture at the completion of the five day incubation. The inhibitory activity of the compound was monitored on the virus-infected cells and was expressed as EC50 and EC90. These values represent the amount of the compound required to protect 50% and 90%, respectively, of the cells from the cytopathogenic effect of the virus. The toxicity of the compound was measured on the mock-infected cells and was expressed as CC50, which represents the concentration of compound required to inhibit the growth of the cells by 50%. The selectivity index (SI) (ratio CC50/EC50) is an indication of the selectivity of the anti-HIV activity of the inhibitor.
(§2) Because of the increasing emergence of drug resistant HIV strains, the present compounds were tested for their potency against clinically isolated HIV strains harboring several mutations.
(§3) As a measure of the broad spectrum activity of the present compounds, the fold resistance (FR) defined as FR=EC50(mutant strain)/EC50(HIV-1 strain LAI).

[2] = system: clinically isolated HIV strain I; format: cell-based; settings: FR=EC50(mutant strain)/EC50(HIV-1 strain LAI)
Protocol: as §1, §2, §3

[3] = system: clinically isolated HIV strain J; format: cell-based; settings: FR=EC50(mutant strain)/EC50(HIV-1 strain LAI)
Protocol: as §1, §2, §3

[4] = system: clinically isolated HIV strain T; format: cell-based; settings: FR=EC50(mutant strain)/EC50(HIV-1 strain LAI)
Protocol: as §1, §2, §3

[5] = system: clinically isolated HIV strain H; format: cell-based; settings: FR=EC50(mutant strain)/EC50(HIV-1 strain LAI)
Protocol: as §1, §2, §3

virus strain F (R13025) = assay: microbe, parasite or virus in culture; format: cell-based, HIV; settings: for fold resistance (FR), strain F: FR=EC50(mutant strain)/EC50(HIV-1 strain LAI)
Outline: (§4)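 Anti-HIV activity against multiply mutated clinical isolates is measured in MT4 cells over a five-day incubation, using MTT viability (540 nm) as a proxy for protection from viral cytopathicity. Values are reported as EC50 or as fold change versus the LAI reference strain.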

virus strain S (R13080) = assay: microbe, parasite or virus in culture; format: cell-based, HIV; settings: for fold resistance (FR), strain S: FR=EC50(mutant strain)/EC50(HIV-1 strain LAI)
Outline: as §4

wild type virus (IIIB) = assay: HIV-AVE-MT4-MTT cellular assay, wild type virus (IIIB); format: cell-based; settings: Human immunodeficiency virus 1, IIIB, MT4, wild type virus (IIIB), MT4 cells, MTT; read-out: HIV-AVE-MT4-MTT-IIIB-2-002 pEC50 (converted)
Outline: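 MT4 cells, HIV- or mock-infected, exposed to inhibitor dilutions for five days. Viability read by MTT reduction to formazan, absorbance at 540 nm. EC50/EC90 give protection from viral cytopathic effect; CC50 comes from mock-infected cells.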

Compound | fold resistance (FR), strain O [1] | fold resistance (FR), strain I [2] | fold resistance (FR), strain J [3] | fold resistance (FR), strain T [4] | fold resistance (FR), strain H [5] | fold resistance (FR), strain F (virus strain F (R13025)) | fold resistance (FR), strain S (virus strain S (R13080)) | EC50 (wild type virus (IIIB)) [nM] | EC50 (virus strain F (R13025); Human immunodeficiency virus 1, MT4, read-out: HIV-AVE-MT4-MTT-R13025-2-002 pEC50, virus strain F (R13025), MT4 cells, MTT (converted)) [nM] | EC50 (virus strain S (R13080); Human immunodeficiency virus 1, MT4, read-out: HIV-AVE-MT4-MTT-R13080-2-002 pEC50, virus strain S (R13080), MT4 cells, MTT (converted)) [nM]
CC(=O)N(CCN1CCCC1)c1nc2ccc(S(=O)(=O)N(CC(C)C)C[C@@H](O)[C@H](Cc3ccccc3)NC(=O)OCc3cccnc3)cc2s1 [Compound 71] | 5.0 | 2.2 | 7.0 | 321.5 | 2.7 | 29.6 | 79.6 | – | – | –
CC(C)CN(C[C@@H](O)[C@H](Cc1ccccc1)NC(=O)OCc1cncs1)S(=O)(=O)c1ccc2nc(NCCCN(C)C)sc2c1 [Compound 51] | 0.6 | 2.6 | 0.9 | 51.8 | 1.8 | 2.9 | 2.1 | – | – | –
CC(C)CN(C[C@@H](O)[C@H](Cc1ccccc1)NC(=O)OCc1cccnc1)S(=O)(=O)c1ccc2nc(NCCN3CCNCC3)sc2c1 [Compound 58] | 1.7 | 0.7 | 2.0 | 27.0 | 1.6 | 2.1 | 4.4 | – | – | –
Cc1c(N)cccc1C(=O)N[C@@H](Cc1ccccc1)[C@H](O)CN(CC(C)C)S(=O)(=O)c1ccc2nc(NCCN3CCNCC3)sc2c1 [Compound 60] | 1.1 | 1.3 | 0.6 | 4.1 | 1.3 | 1.2 | 1.4 | – | – | –
CC(C)CN(C[C@@H](O)[C@H](Cc1ccccc1)NC(=O)O[C@H]1CO[C@H]2OCC[C@H]21)S(=O)(=O)c1ccc2nc(N3CCN(C)CC3=O)sc2c1 [Compound 26] | 10.6 | 6.6 | 9.2 | 345.6 | 20.3 | 29.6 | 34.1 | – | – | –
CC(=O)N(C)c1nc2ccc(S(=O)(=O)N(CC(C)C)C[C@@H](O)[C@H](Cc3ccccc3)NC(=O)OCc3cncs3)cc2s1 [Compound 80] | 8.1 | 3.9 | 17.6 | 457.6 | 5.7 | 17.4 | 26.6 | – | – | –
CC(C)CN(C[C@@H](O)[C@H](Cc1ccccc1)NC(=O)O[C@H]1CO[C@H]2OCC[C@H]21)S(=O)(=O)c1ccc2nc(NCCN(C)C(=O)OC(C)(C)C)sc2c1 [Compound 21] | 3.4 | 3.7 | 3.3 | 380.0 | 4.8 | 16.6 | 38.6 | – | – | –
CC(C)CN(C[C@@H](O)[C@H](Cc1ccccc1)NC(=O)O[C@H]1CCOC1)S(=O)(=O)c1ccc2nc(NCCN3CCCC3)sc2c1.O=C(O)C(F)(F)F [Compound 68] | 3.5 | 2.4 | 3.9 | 775.2 | 7.3 | 65.2 | 180.7 | – | – | –
COC(=O)CNc1nc2ccc(S(=O)(=O)N(CC(C)C)CC(O)C(Cc3ccccc3)NC(=O)OC3COC4OCCC34)cc2s1 (mixture of isomers) [Compound 6] | 4.7 | 5.3 | 5.6 | 104.3 | 7.7 | 24.0 | 30.7 | – | – | –
Cc1cc(Br)ccc1C(=O)N[C@@H](Cc1ccccc1)[C@H](O)CN(CC(C)C)S(=O)(=O)c1ccc2nc(NC(=O)CN3CCCC3)sc2c1 [Compound 70] | 3.2 | 3.7 | 3.3 | 145.1 | 3.1 | 4.7 | 10.4 | – | – | –
Cc1c(N)cccc1C(=O)N[C@@H](Cc1ccccc1)[C@H](O)CN(CC(C)C)S(=O)(=O)c1ccc2nc(NC(=O)CN3CCCC3)sc2c1 [Compound 62] | 2.7 | 2.8 | 2.4 | 277.9 | 3.2 | 14.5 | 16.1 | – | – | –
CCOC(=O)N(CCN(C)C)c1nc2ccc(S(=O)(=O)N(CC(C)C)C[C@@H](O)[C@H](Cc3ccccc3)NC(=O)O[C@H]3CO[C@H]4OCC[C@H]43)cc2s1 [Compound 28] | 0.8 | 1.4 | 0.7 | 12.7 | 1.8 | 2.3 | 4.4 | – | – | –
CC(C)CN(C[C@@H](O)[C@H](Cc1ccccc1)NC(=O)O[C@H]1CO[C@H]2OCC[C@H]21)S(=O)(=O)c1ccc2nc(NCCCN(C)C)sc2c1 [Compound 22] | 0.4 | 0.6 | 0.4 | 6.0 | 0.4 | 0.3 | 1.4 | – | – | –
Cc1cccc(C)c1OCC(=O)N[C@@H](Cc1ccccc1)[C@H](O)CN(CC(C)C)S(=O)(=O)c1ccc2nc(NC(=O)c3cccc(O)c3C)sc2c1 [Compound 117] | – | – | – | – | – | – | – | 47.9 | 35.5 | 191
